PubChem BioAssay (NCI)
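Method: 48-hour compound exposure of cells in 96-well plates, five concentrations, linear interpolation of endpoints. The concentration for 50% growth inhibition is given as GI50. TGI marks complete inhibition of growth.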

Assays:
Assay in all cases: growth of human tumour cells (NCI), 48 h
[1] = system: UACC-62 melanoma
[2] = system: KM12 colon
[3] = system: HOP-92 NSCLC
[4] = system: SNB-75 CNS
[5] = system: HCT-116 colon
[6] = system: LOX IMVI melanoma
[7] = system: ACHN renal
[8] = system: SF-268 CNS
[9] = system: UACC-257 melanoma
[10] = system: HCC-2998 colon

| SMILES | TGI [1] [µM] | TGI [2] [µM] | TGI [3] [µM] | TGI [4] [µM] | TGI [5] [µM] | TGI [6] [µM] | TGI [7] [µM] | TGI [8] [µM] | TGI [9] [µM] | TGI [10] [µM] | GI50 [1] [µM] | GI50 [2] [µM] | GI50 [3] [µM] | GI50 [4] [µM] | GI50 [5] [µM] | GI50 [6] [µM] | GI50 [7] [µM] | GI50 [8] [µM] | GI50 [9] [µM] | GI50 [10] [µM] |
| --- | --- | --- | --- | --- | --- | --- | --- | --- | --- | --- | --- | --- | --- | --- | --- | --- | --- | --- | --- | --- |
| O=S(=O)(Nc1ccc2ccc3cccc4ccc1c2c34)c1ccccc1 | > 100 | > 100 | 98.3 | > 100 | > 100 | > 100 | > 100 | > 100 | > 100 | – | – | – | – | – | – | – | – | – | – | – |
| COC(=O)Oc1nn(C(=O)OC)c(=O)c2ccccc12 (tested in a mixture with another compound) | > 100 | > 100 | – | > 100 | > 100 | > 100 | > 100 | > 100 | > 100 | > 100 | – | – | – | – | – | – | – | – | – | – |
| COc1ccc2c(c1)C(=O)/C(=C/c1ccc(OCC(=O)c3ccc(Cl)cc3)cc1)O2 | > 100 | 30.1 | 37.1 | 79.9 | 13 | 19.8 | 30.5 | 48.6 | > 100 | – | 17.5 | 15.6 | 15.7 | 12.2 | 3.07 | 5.44 | 15.9 | 18.4 | > 100 | – |
| COc1cccc(C2C3=C(COC3=O)N(CCO)c3cc4c(cc32)CCC4)c1 (stereo not drawn) | > 50 | 0.443 | – | 0.397 | 0.692 | > 37.1 | > 50 | 5.93 | > 50 | 1.31 | 34.2 | 0.0219 | – | 0.0236 | 0.0526 | 0.0934 | 0.0622 | 0.0731 | 32.6 | 0.0795 |
| CCCCCNC(=O)C1C(=O)N(CCCCC)C(=O)/C1=N\N (stereo not drawn) | > 100 | > 100 | 95.4 | – | – | – | > 100 | > 100 | > 100 | > 100 | – | – | – | – | – | – | – | – | – | – |
| COc1ccc(C(NCCNC(c2ccc(OC)c(OC)c2)c2cc3c(cc2O)OCO3)c2cc3c(cc2O)OCO3)cc1OC (stereo not drawn) | 7.52 | 7.11 | 17.1 | 11.5 | 6.05 | 3.51 | 7.95 | 3.24 | 9.97 | – | – | – | – | – | – | – | – | – | – | – |
| O=C(CN1c2ccccc2Sc2ccccc21)n1cnc2ccccc21 | > 100 | > 100 | 93.9 | > 100 | > 100 | > 100 | > 100 | > 100 | > 100 | – | – | – | – | – | – | – | – | – | – | – |
| CCN=C(N)CSS(=O)(=O)O | > 100 | > 100 | > 100 | > 100 | > 100 | > 100 | > 100 | > 100 | > 100 | – | – | – | – | – | – | – | – | – | – | – |
| CC1(C)OCC(C2OC(On3nnc4ccc(Cl)cc43)C3OC(C)(C)OC23)O1 (stereo not drawn) | > 100 | > 100 | > 100 | > 100 | > 100 | > 100 | > 100 | > 100 | > 100 | – | – | – | – | – | – | – | – | – | – | – |
| COc1ccc(C(=O)Nc2ccccc2C#N)cc1 | > 100 | > 100 | > 100 | > 100 | > 100 | > 100 | > 100 | > 100 | > 100 | – | – | – | – | – | – | – | – | – | – | – |
| Cn1cccc1C1CC(=O)N(CCC[Se]C#N)C1=O (stereo not drawn) | 3.91 | 5.36 | – | – | 6.27 | 4.28 | 4.4 | 3.92 | 4.73 | 10.1 | 1.87 | 2.11 | – | – | 2.34 | 1.88 | 2.11 | 1.92 | 1.95 | 2.96 |
| Cc1nc(N=C(N)N)nc2ccc3ccccc3c12 | – | 4.37 | – | 1.97 | 4.82 | 3.18 | 5.15 | 2.55 | 4.17 | – | – | 1.03 | – | 0.524 | 1.12 | 1.57 | 1.79 | 0.505 | 1.46 | – |
| Cc1cc(C)c2c(c1C)CN1CN2Cc2c(C)c(C)cc(C)c21 | > 100 | > 100 | > 100 | 58.1 | > 100 | > 100 | > 100 | > 100 | – | – | – | – | – | – | – | – | – | – | – | – |
| COC(=O)C1(c2ccc(OC)cc2)NC(c2ccccc2)C2C(=O)N(c3ccc(OC)cc3)C(=O)C21 (stereo not drawn) | > 100 | > 100 | – | > 100 | – | > 100 | > 100 | > 100 | > 100 | > 100 | – | – | – | – | – | – | – | – | – | – |
| COc1ccc(C(=O)Nc2ccccc2)cc1[N+](=O)[O-] | > 100 | > 100 | – | > 100 | – | > 100 | – | > 100 | > 100 | – | – | – | – | – | – | – | – | – | – | – |
| CC(=O)/C(=C\n1c(=S)[nH]c2ccc([N+](=O)[O-])cc21)C(=O)Nc1ccccc1C | > 100 | – | – | – | > 100 | > 100 | > 100 | – | > 100 | > 100 | – | – | – | – | – | – | – | – | – | – |
| CNS(=O)(=O)NN(C)S(=O)(=O)c1ccc(C)cc1 | > 100 | > 100 | > 100 | – | > 100 | – | > 100 | > 100 | > 100 | > 100 | – | – | – | – | – | – | – | – | – | – |
| COC(=O)C12C3C=CC(O3)C1C1C=CC2O1 (stereo not drawn) | – | > 100 | > 100 | – | – | – | > 100 | > 100 | > 100 | > 100 | – | – | – | – | – | – | – | – | – | – |
